Results published in PubChem BioAssay AID1963830 (Molecular Pharmacology Branch, DTP, NCI, 2024).

Tested on: 922993-354-T-J3-PDC complex spheroid viability
Experiment: Anticancer human tumor 922993-354-T-J3-PDC patient-derived endometrial carcinoma cell line growth inhibition [POLQ]
Conditions: for IC50: curve of first compound; for viability, T/C: stronger effect = lower value
Procedure, shortened: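 PDC + HUVEC + MSC complex spheroids; POLQ inhibitors ± partner drugs; top conc. at/near clinical Cmax, else 10 microM (SN-38 1 microM), half-log dilutions; 37 degrees C, 5% CO2.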

[1] = second compound 0.0316 µM, first compound 0.0316 µM
[2] = second compound 0.0316 µM, first compound 0.1 µM
[3] = second compound 0.0316 µM, first compound 0.316 µM
[4] = second compound 0.0316 µM, first compound 1 µM
[5] = second compound 0.1 µM, first compound 0.0316 µM
[6] = second compound 0.1 µM, first compound 0.1 µM
[7] = second compound 0.1 µM, first compound 0.316 µM
[8] = second compound 0.1 µM, first compound 1 µM
[9] = second compound 0.316 µM, first compound 0.0316 µM
[10] = second compound 0.316 µM, first compound 0.1 µM
[11] = second compound 0.316 µM, first compound 0.316 µM
[12] = second compound 0.316 µM, first compound 1 µM
[13] = second compound 1 µM, first compound 0.0316 µM
[14] = second compound 1 µM, first compound 0.1 µM
[15] = second compound 1 µM, first compound 0.316 µM
[16] = second compound 1 µM, first compound 1 µM
[17] = second compound 3.16 µM, first compound 0.0316 µM
[18] = second compound 3.16 µM, first compound 0.1 µM
[19] = second compound 3.16 µM, first compound 0.316 µM
[20] = second compound 3.16 µM, first compound 1 µM
[21] = second compound 10 µM, first compound 0.0316 µM
[22] = second compound 10 µM, first compound 0.1 µM
[23] = second compound 10 µM, first compound 0.316 µM
[24] = second compound 10 µM, first compound 1 µM
[25] = second compound 0.0316 µM, first compound 0.00316 µM
[26] = second compound 0.0316 µM, first compound 0.01 µM
[27] = second compound 0.1 µM, first compound 0.00316 µM
[28] = second compound 0.1 µM, first compound 0.01 µM
[29] = second compound 0.316 µM, first compound 0.00316 µM
[30] = second compound 0.316 µM, first compound 0.01 µM
[31] = second compound 1 µM, first compound 0.00316 µM
[32] = second compound 1 µM, first compound 0.01 µM
[33] = second compound 3.16 µM, first compound 0.00316 µM
[34] = second compound 3.16 µM, first compound 0.01 µM
[35] = second compound 10 µM, first compound 0.00316 µM
[36] = second compound 10 µM, first compound 0.01 µM
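Note: spheroids exposed to the agents for one week.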
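Throughout, for viability, T/C: 100% = DMSO vehicle control wells.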

Structure (SMILES): COc1ccc([C@@H](O)c2cc(-c3ncnc4cc(N5CCOCC5)ccc34)c(F)cc2Cl)nn1 + Cc1cccc(N(C)C(=O)C2C(O)CCN2c2nc(C)cc(C(F)(F)F)c2C#N)c1
- IC50 (second compound 0.0316 µM): > 10000 nM
- IC50 (second compound 0.1 µM): > 10000 nM
- IC50 (second compound 0.316 µM): > 10000 nM
- IC50 (second compound 1 µM): > 10000 nM
- IC50 (second compound 3.16 µM): > 10000 nM
- IC50 (second compound 10 µM): > 10000 nM
- viability, T/C [1]: 94%
- viability, T/C [2]: 85.9%
- viability, T/C [3]: 97.3%
- viability, T/C [4]: 98.3%
- viability, T/C (second compound 0.0316 µM, first compound 3.16 µM): 85.4%
- viability, T/C (second compound 0.0316 µM, first compound 10 µM): 58.2%
- viability, T/C [5]: 97.2%
- viability, T/C [6]: 99.5%
- viability, T/C [7]: 104%
- viability, T/C [8]: 94.6%
- viability, T/C (second compound 0.1 µM, first compound 3.16 µM): 81.1%
- viability, T/C (second compound 0.1 µM, first compound 10 µM): 63.9%
- viability, T/C [9]: 99.9%
- viability, T/C [10]: 104%
- viability, T/C [11]: 98.5%
- viability, T/C [12]: 84.3%
- viability, T/C (second compound 0.316 µM, first compound 3.16 µM): 82.9%
- viability, T/C (second compound 0.316 µM, first compound 10 µM): 62.6%
- viability, T/C [13]: 101%
- viability, T/C [14]: 93.5%
- viability, T/C [15]: 103%
- viability, T/C [16]: 103%
- viability, T/C (second compound 1 µM, first compound 3.16 µM): 79%
- viability, T/C (second compound 1 µM, first compound 10 µM): 62.7%
- viability, T/C [17]: 103%
- viability, T/C [18]: 102%
- viability, T/C [19]: 102%
- viability, T/C [20]: 86.9%
- viability, T/C (second compound 3.16 µM, first compound 3.16 µM): 80.2%
- viability, T/C (second compound 3.16 µM, first compound 10 µM): 60.5%
- viability, T/C [21]: 93.6%
- viability, T/C [22]: 95%
- viability, T/C [23]: 91.4%
- viability, T/C [24]: 83.7%
- viability, T/C (second compound 10 µM, first compound 3.16 µM): 78%
- viability, T/C (second compound 10 µM, first compound 10 µM): 57.9%

Structure (SMILES): COc1cccc(OCCCN)c1-c1cc(Nc2cnc(C#N)cn2)n[nH]1 + Cc1cccc(N(C)C(=O)C2C(O)CCN2c2nc(C)cc(C(F)(F)F)c2C#N)c1
- IC50 (second compound 0.0316 µM): 603 nM
- IC50 (second compound 0.1 µM): 585 nM
- IC50 (second compound 0.316 µM): 610 nM
- IC50 (second compound 1 µM): 599 nM
- IC50 (second compound 3.16 µM): 436 nM
- IC50 (second compound 10 µM): 140 nM
- viability, T/C [25]: 107%
- viability, T/C [26]: 107%
- viability, T/C [1]: 103%
- viability, T/C [2]: 104%
- viability, T/C [3]: 89%
- viability, T/C [4]: 19.8%
- viability, T/C [27]: 104%
- viability, T/C [28]: 104%
- viability, T/C [5]: 103%
- viability, T/C [6]: 97.7%
- viability, T/C [7]: 91.3%
- viability, T/C [8]: 14.5%
- viability, T/C [29]: 102%
- viability, T/C [30]: 101%
- viability, T/C [9]: 101%
- viability, T/C [10]: 98%
- viability, T/C [11]: 93.5%
- viability, T/C [12]: 17.2%
- viability, T/C [31]: 102%
- viability, T/C [32]: 98.8%
- viability, T/C [13]: 103%
- viability, T/C [14]: 98%
- viability, T/C [15]: 92.4%
- viability, T/C [16]: 16%
- viability, T/C [33]: 103%
- viability, T/C [34]: 106%
- viability, T/C [17]: 101%
- viability, T/C [18]: 99.5%
- viability, T/C [19]: 65.1%
- viability, T/C [20]: 10.7%
- viability, T/C [35]: 99.2%
- viability, T/C [36]: 101%
- viability, T/C [21]: 94.3%
- viability, T/C [22]: 65.5%
- viability, T/C [23]: 13.2%
- viability, T/C [24]: 9.72%

Structure (SMILES): Cn1ncnc1[C@H]1c2n[nH]c(=O)c3cc(F)cc(c23)N[C@@H]1c1ccc(F)cc1 + Cc1cccc(N(C)C(=O)C2C(O)CCN2c2nc(C)cc(C(F)(F)F)c2C#N)c1
- IC50 (second compound 0.0316 µM): > 100 nM
- IC50 (second compound 0.1 µM): > 100 nM
- IC50 (second compound 0.316 µM): > 100 nM
- IC50 (second compound 1 µM): > 100 nM
- IC50 (second compound 3.16 µM): 83 nM
- IC50 (second compound 10 µM): 30.7 nM
- viability, T/C (second compound 0.0316 µM, first compound 0.000316 µM): 97.8%
- viability, T/C (second compound 0.0316 µM, first compound 0.001 µM): 95.5%
- viability, T/C [25]: 111%
- viability, T/C [26]: 98.3%
- viability, T/C [1]: 99%
- viability, T/C [2]: 70.2%
- viability, T/C (second compound 0.1 µM, first compound 0.000316 µM): 108%
- viability, T/C (second compound 0.1 µM, first compound 0.001 µM): 105%
- viability, T/C [27]: 94.2%
- viability, T/C [28]: 94.4%
- viability, T/C [5]: 90.2%
- viability, T/C [6]: 74.9%
- viability, T/C (second compound 0.316 µM, first compound 0.000316 µM): 107%
- viability, T/C (second compound 0.316 µM, first compound 0.001 µM): 106%
- viability, T/C [29]: 102%
- viability, T/C [30]: 106%
- viability, T/C [9]: 91.2%
- viability, T/C [10]: 67.2%
- viability, T/C (second compound 1 µM, first compound 0.000316 µM): 107%
- viability, T/C (second compound 1 µM, first compound 0.001 µM): 108%
- viability, T/C [31]: 111%
- viability, T/C [32]: 96.8%
- viability, T/C [13]: 97.4%
- viability, T/C [14]: 66.2%
- viability, T/C (second compound 3.16 µM, first compound 0.000316 µM): 100%
- viability, T/C (second compound 3.16 µM, first compound 0.001 µM): 101%
- viability, T/C [33]: 99.9%
- viability, T/C [34]: 96.8%
- viability, T/C [17]: 92.3%
- viability, T/C [18]: 41.6%
- viability, T/C (second compound 10 µM, first compound 0.000316 µM): 111%
- viability, T/C (second compound 10 µM, first compound 0.001 µM): 97.4%
- viability, T/C [35]: 99%
- viability, T/C [36]: 72.9%
- viability, T/C [21]: 49.8%
- viability, T/C [22]: 32%
